# Data taken from PMC5681660, “Reduced hepatitis B and D viral entry using clinically applied drugs as novel inhibitors of the bile acid transporter NTCP” (Scientific Reports, 2017).
# Structures can show the parent of a compound that is named as a salt.
# How the values were obtained:
# human NTCP [1] = target: T1, human NTCP (Homo sapiens, UniProt Q14973); test: Screening fluorescent competitive Myrcludex B-FITC binding assay (96-well, 10 µM drug); settings: 10 µM drug
# T1 sequence (Q14973 1-349): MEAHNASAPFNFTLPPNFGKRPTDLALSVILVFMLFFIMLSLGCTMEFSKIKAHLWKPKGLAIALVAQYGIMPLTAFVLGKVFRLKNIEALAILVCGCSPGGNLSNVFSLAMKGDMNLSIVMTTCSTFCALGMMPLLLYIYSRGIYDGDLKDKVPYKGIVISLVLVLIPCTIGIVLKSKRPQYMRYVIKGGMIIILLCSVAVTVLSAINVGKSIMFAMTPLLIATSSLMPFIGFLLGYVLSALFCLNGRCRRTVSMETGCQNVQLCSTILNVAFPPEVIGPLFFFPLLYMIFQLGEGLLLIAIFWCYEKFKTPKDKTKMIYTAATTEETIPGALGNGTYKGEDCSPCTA
# human NTCP [2] = target: T1, human NTCP; test: Screening taurocholate uptake assay (96-well, [14C]taurocholate, 10 µM drug); settings: for B-score functional assay: 10 µM drug
# [3] = Prestwick library screen, B-score of Myrcludex B-FITC binding
# [4] = Prestwick library screen, B-score of taurocholate uptake
# [5] = combined ranking from functional and binding assay B-scores
# [6] = screen, Myrcludex B-FITC binding
# [7] = combined ranking from functional and binding screening assays
# [8] = Prestwick library screen, Myrcludex B-FITC binding
# [9] = Prestwick library screen, taurocholate uptake
# [10] = ranking score beside the functional and binding assay B-scores of the screen
SMILES,B-score binding assay (human NTCP [1]; [3]),B-score functional assay (human NTCP [2]; [4]),Ranking score (human NTCP [2]; [5]),B-score binding assay (human NTCP [1]; [6]),Ranking score (human NTCP [2]; [7]),"B-score functional assay (human NTCP [2]; screen, taurocholate uptake)",further results
CC(C)(C)NC[C@H](O)COc1nsnc1N1CCOCC1.O=C(O)/C=C\C(=O)O [Timolol maleate salt],0.866,1.166,1052.08,–,–,–,–
COc1cccc(N(C)C(=S)Oc2ccc3c(c2)CCCC3)n1 [Liranaftate],0.615,0.374,904.804,–,–,–,–
CN(C)CCC(c1ccccc1)c1ccccn1 (stereo not drawn) [Pheniramine maleate],–,–,–,-0.017,447.397,-0.685,–
CCCN(CCC)S(=O)(=O)c1ccc(C(=O)O)cc1 [Probenecid],–,–,–,–,–,–,B-score binding assay (human NTCP [1]; [8]): 0.597; B-score functional assay (human NTCP [2]; [9]): -0.194; Ranking score (human NTCP [2]; [10]): 677.591
CCCCC(O)c1ccccc1 (stereo not drawn) [Fenipentol],–,–,–,-0.138,460.361,-0.409,–
CCC(=O)O[C@@H](O[P@](=O)(CCCCc1ccccc1)CC(=O)N1C[C@H](C2CCCCC2)C[C@H]1C(=O)O)C(C)C [Fosinopril],–,–,–,–,–,–,B-score binding assay (human NTCP [1]; [8]): -0.621; B-score functional assay (human NTCP [2]; [9]): 3.318; Ranking score (human NTCP [2]; [10]): 655.924
CC1CNc2c(cccc2S(=O)(=O)N[C@@H](CCCNC(=N)N)C(=O)N2CC[C@@H](C)C[C@@H]2C(=O)O)C1 (stereo partly drawn) [Argatroban],–,–,–,–,–,–,B-score binding assay (human NTCP [1]; [8]): 0.437; B-score functional assay (human NTCP [2]; [9]): -0.168; Ranking score (human NTCP [2]; [10]): 668.874
C[C@H]1O[C@@H](O[C@H]2[C@@H](O)C[C@H](O[C@H]3[C@@H](O)C[C@H](O[C@H]4CC[C@@]5(C)[C@H](CC[C@@H]6[C@@H]5C[C@@H](O)[C@]5(C)[C@@H](C7=CC(=O)OC7)CC[C@]65O)C4)O[C@@H]3C)O[C@@H]2C)C[C@H](O)[C@@H]1O [Digoxin],–,–,–,2.8,426.002,-1.822,–
C1N2CN3CN1CN(C2)C3 [Methenamine],0.067,1.472,906.386,–,–,–,–
Cc1c(-c2ccccc2)oc2c(C(=O)OCCN3CCCCC3)cccc2c1=O [Flavoxate hydrochloride],–,–,–,–,–,–,B-score binding assay (human NTCP [1]; [8]): 1.224; B-score functional assay (human NTCP [2]; [9]): -0.169; Ranking score (human NTCP [2]; [10]): 734.394
Cn1cnc([N+](=O)[O-])c1Sc1ncnc2nc[nH]c12 [Azathioprine],1.035,1.292,1083.5,–,–,–,–
C1CCC(C(CC2CCCCN2)C2CCCCC2)CC1 (stereo not drawn) [Perhexiline maleate],–,–,–,-0.916,400.32,-0.011,–
CCN(CC)CCCC(C)Nc1c2ccc(Cl)cc2nc2ccc(OC)cc12.Cl.Cl (stereo not drawn) [Quinacrine dihydrochloride hydrate],–,–,–,7.101,399.375,-2.093,–
C[N+]1(C)CCC(OC(=O)C(O)(c2ccccc2)C2CCCC2)C1 (stereo not drawn) [Glycopyrrolate],–,–,–,–,–,–,B-score binding assay (human NTCP [1]; [8]): 0.143; B-score functional assay (human NTCP [2]; [9]): 0.403; Ranking score (human NTCP [2]; [10]): 820.625
NC(=O)CN1CCCC1=O [Piracetam],–,–,–,–,–,–,B-score binding assay (human NTCP [1]; [8]): -0.345; B-score functional assay (human NTCP [2]; [9]): 0.881; Ranking score (human NTCP [2]; [10]): 661.843
NC[C@@H]1O[C@H](O[C@H]2[C@@H](O)[C@H](O[C@@H]3[C@@H](O)[C@H](N)C[C@H](N)[C@H]3O[C@H]3O[C@H](CN)[C@@H](O)[C@H](O)[C@H]3N)O[C@@H]2CO)[C@H](N)[C@@H](O)[C@@H]1O.O=S(=O)(O)O [Neomycin sulfate],0.524,0.497,912.995,–,–,–,–
CN[C@@H]1[C@@H](O[C@H]2O[C@H](CO)[C@@H](N)[C@H](O)[C@H]2O)OC2C[C@@H](N)[C@@H](O[C@H]3[C@H](O)[C@@H](O)[C@H](N)C[C@@H]3N)OC2[C@@H]1O (stereo partly drawn) [Apramycin],–,–,–,-0.447,397.98,-0.431,–
CCOc1ccc(NC(C)=O)cc1 [Phenacetin],0.917,0.074,860.113,–,–,–,–
Cl.N[C@@H]1CCCCN(c2c(F)cc3c(=O)c(C(=O)O)cn(C4CC4)c3c2Cl)C1 [Besifloxacin hydrochloride],1.112,1.274,1087.71,–,–,–,–
CCN(CC)C(=O)C1(c2ccccc2)CC1CN.Cl (stereo not drawn) [Milnacipran hydrochloride],0.152,1.822,955.465,–,–,–,–
C=CC[N@@+]12CC[C@@]34c5ccccc5N5/C=C6/[C@H]7C[C@H]8[C@@]9(CC[N@@+]8(CC=C)C/C7=C/CO)c7ccccc7N(/C=C(/[C@@H](C[C@@H]31)/C(=C\CO)C2)[C@H]54)[C@@H]69.[Cl-].[Cl-] [Alcuronium chloride],–,–,–,-1.767,375.739,1.096,–
CN1CCN(CCCN2c3ccccc3Sc3ccc(C(F)(F)F)cc32)CC1 [Trifluoperazine dihydrochloride],–,–,–,–,–,–,B-score binding assay (human NTCP [1]; [8]): -0.002; B-score functional assay (human NTCP [2]; [9]): 0.212; Ranking score (human NTCP [2]; [10]): 714.92
CCCCc1oc2ccccc2c1C(=O)c1cc(I)c(OCCN(CC)CC)c(I)c1 [Amiodarone hydrochloride],–,–,–,–,–,–,B-score binding assay (human NTCP [1]; [8]): 1.025; B-score functional assay (human NTCP [2]; [9]): 0.027; Ranking score (human NTCP [2]; [10]): 845.421
CCOC(=O)[C@H](CCc1ccccc1)N[C@@H](C)C(=O)N1CCC[C@H]1C(=O)O [Enalapril maleate],–,–,–,–,–,–,B-score binding assay (human NTCP [1]; [8]): 0.03; B-score functional assay (human NTCP [2]; [9]): 0.08; Ranking score (human NTCP [2]; [10]): 705.002

# Further lines, with some results ahead:
B-score binding assay (human NTCP [1]; [3]),B-score functional assay (human NTCP [2]; [4]),Ranking score (human NTCP [2]; [5]),B-score binding assay (human NTCP [1]; [6]),Ranking score (human NTCP [2]; [7]),"B-score functional assay (human NTCP [2]; screen, taurocholate uptake)",SMILES,further results
–,–,–,-1.412,445.618,1.757,NCCCC[C@H](N[C@@H](CCc1ccccc1)C(=O)O)C(=O)N1CCC[C@H]1C(=O)O [Lisinopril],–
0.866,1.44,1073.5,–,–,–,Nc1ccc(C(=O)NCC(=O)O)cc1 [Aminohippuric acid],–
1.242,0.334,962.353,–,–,–,CC(C)(C)NC[C@H](O)c1ccc(O)c(CO)c1 [Levalbuterol hydrochloride],–
–,–,–,-1.194,446.058,0.629,CCN1CC(CCN2CCOCC2)C(c2ccccc2)(c2ccccc2)C1=O.Cl (stereo not drawn) [Doxapram hydrochloride],–
–,–,–,1.164,355.331,-2.175,CC[C@H](C)C(=O)O[C@H]1CCC=C2C=C[C@H](C)[C@H](CC[C@@H]3C[C@@H](O)CC(=O)O3)[C@H]21 [Mevastatin],–
–,–,–,-0.835,403.36,-0.051,CNCCCC12CCC(c3ccccc31)c1ccccc12 [Maprotiline hydrochloride],–
1.834,0.335,1002.84,–,–,–,c1ccc([C@H]2CN3CCSC3=N2)cc1 [Levamisole hydrochloride],–
–,–,–,0.054,367.214,-1.4,OC(CCCN1CCCCC1)(c1ccccc1)c1ccccc1 [Diphenidol hydrochloride],–
0.293,0.705,906.685,–,–,–,CN1CCOC(c2ccccc2)c2ccccc2C1 (stereo not drawn) [Nefopam hydrochloride],–
–,–,–,-0.164,303.528,-1.48,CCCN[C@H]1CCc2nc(N)sc2C1 [Pramipexole dihydrochloride],–
1.253,0.671,1026.13,–,–,–,Nc1nc(/C(=C/CC(=O)O)C(=O)N[C@@H]2C(=O)N3C(C(=O)O)=CCS[C@H]23)cs1 [Ceftibuten],–
